Measured values reported in patent US20210330611A1, “THERAPY FOR NEUROLOGICAL DISEASES/DISORDERS” (priority 2020, published 2021).
Where “and” joins values, the source holds several entries; their conditions need not be identical. Equal values may be shown once. Where a name gives a salt, the structure may show the parent alone. Read-outs that look alike come from different tables or passages of the source. *1 amine or outer side, *2 acyl side, *3 side chain or, on linkers, in order; H or OH if unused. Where a SMILES comes first, the peptide text is derived from it. Bridges are numbered along the chain shown (N, C = ends). Roman numbers before positions name the chains, in order. [ ]: non-standard residue; d: D form. Actinocin(9to1) = Cc1c2oc3c(C)ccc(C(=O)[*:1])c3nc-2c(C(=O)[*:2])c(N)c1=O; NMeV = CN[C@H](C(=O)O)C(C)C; Sar = CNCC(=O)O

How the values were obtained:
Format in all cases: cell-based, rat
[1] = tested on: fibrin-induced microglia activation; experiment: Image-based assay of fibrin-induced microglia activation (HTS and dose response); details: for inhibition at 10 µM: read-out: Fibrin % inhibition; for IC50: read-out: fib_IC50
[2] = tested on: fibrin- and LPS-induced microglia activation; experiment: cells
[3] = tested on: LPS-induced microglia activation; experiment: Image-based assay of LPS-induced microglia activation (HTS and dose response)
[4] = Rattus norvegicus, Microglia, 48 h, read-out: LPS % inhibition
[5] = primary microglia HTS, fibrin stimulation, activation = cell size >800 μm2
[6] = quadrant by fibrin and LPS inhibition in HTS of 1907 compounds
[7] = primary microglia HTS, LPS stimulation, activation = cell size >800 μm2
[8] = Rattus norvegicus, Microglia, primary microglia HTS, fibrin stimulation, cell size >800 μm2 as marker of activation
[9] = classification by fibrin and LPS inhibition in HTS
[10] = Rattus norvegicus, Microglia, 48 h; read-out: LPS % inhibition
[11] = Rattus norvegicus, Microglia, read-out: LPS % inhibition
[12] = Rattus norvegicus, Microglia, primary microglia HTS, fibrin stimulation, compounds at 10 μM
[13] = quadrant by fibrin and LPS inhibition, HTS at 10 μM
[14] = Rattus norvegicus, Microglia, primary microglia HTS, LPS stimulation, compounds at 10 μM; read-out: LPS % inhibition
[15] = Rattus norvegicus, Microglia, primary microglia HTS, fibrin stimulation, increased cell size (>800 μm^2) as marker of activation
[16] = Rattus norvegicus, Microglia, 48 h, primary microglia HTS, LPS stimulation; increased cell size (>800 μm^2) as marker of activation; read-out: LPS % inhibition
[17] = Rattus norvegicus, Microglia, Table 7
[18] = Table 7, fib = fibrin, LPS, tox = toxicity
[19] = Rattus norvegicus, Microglia, Table 7; read-out: LPS_IC50
[20] = classification by fibrin and LPS inhibition, HTS at 10 μM

## C[N+]1(C)CCC(OC(=O)C(O)(c2ccccc2)C2CCCC2)C1 (stereo not drawn) [Glycopyrrolate]
[1]; Rattus norvegicus, Microglia
  inhibition at 10 µM: -33%
[2]
  Quadrant (FIG. 5b): Q4
[3]; [4]
  inhibition at 10 µM: 3%

## Hexylene Glycol
[1]; [5]
  Fibrin % inhibition: −8%
[2]; [6]
  Quadrant (FIG. 5b): Q4
[3]; [7]
  LPS % inhibition: 12%

## O=C(O)CCCCC1CCSS1 (stereo not drawn) [Lipoic Acid]
[1]; [5]
  Fibrin % inhibition: −38%
[2]; [6]
  Quadrant (FIG. 5b): Q4
[3]; [7]
  LPS % inhibition: 39%

## CNC(C)C(O)c1ccccc1 (stereo not drawn) [Racephedrine Hydrochloride]
[1]; [8]
  inhibition at 10 µM: -26%
[2]; [9]
  Quadrant (FIG. 5b): Q4
[3]; [10]
  inhibition at 10 µM: 17%

## Hydrocortisone sodium phosphate [reference compound]
[1]
  fib specificity: 1.3
  fib_HS: −0.52
  IC50: 128 nM
[2]
  Activity: fib/LPS
  Quadrant (FIG. 5b): Q2
[3]
  LPS specificity: 0.8
  LPS_HS: −0.69
[3]; read-out: LPS_IC50
  IC50: 161 nM

## CN1CCN2c3ccccc3Cc3ccccc3C2C1 (stereo not drawn) [Mianserin]
[1]; Rattus norvegicus, Microglia
  inhibition at 10 µM: -18%
[2]
  Quadrant (FIG. 5b): Q4
[3]; [4]
  inhibition at 10 µM: 17%

## Cc1cc2nc3c(=O)[nH]c(=O)nc-3n(C[C@H](O)[C@H](O)[C@H](O)COP(=O)([O-])O)c2cc1C.[Na+] [Riboflavin 5-phosphate Sodium]
[1]; primary microglia HTS, fibrin stimulation, cell size >800 μm2 as marker of activation
  Fibrin % inhibition: 11%
[2]; [9]
  Quadrant (FIG. 5b): Q4
[3]
  LPS % inhibition: 24%

## C[C@]12CC[C@H](O)CC1=CC[C@@H]1[C@@H]2CC[C@]2(C)C(=O)CC[C@@H]12 [Prasterone]
[1]; [8]
  inhibition at 10 µM: 1%
[2]; [9]
  Quadrant (FIG. 5b): Q4
[3]; [10]
  inhibition at 10 µM: 15%

## Cc1cn([C@H]2C[C@H](N=[N+]=[N-])[C@@H](CO)O2)c(=O)[nH]c1=O [Zidovudine]
[2]
  Quadrant (FIG. 5b): Q4
[3]; 10 µM
  LPS % inhibition: 13%
[3]; [11]
  inhibition at 10 µM: 9%

## COCc1c(C(C)C)nc(C(C)C)c(/C=C/[C@@H](O)C[C@@H](O)CC(=O)O)c1-c1ccc(F)cc1 [Cerivastatin, Cerivastatin Na]
[1]
  Fibrin % inhibition: 103%
[2]
  Quadrant (FIG. 5b): Q2
[3]
  LPS % inhibition: 101%

## COC(=O)C1=CCCN(C)C1 [Arecoline]
[1]; [12]
  inhibition at 10 µM: 17%
[2]; [13]
  Quadrant (FIG. 5b): Q4
[3]; [14]
  inhibition at 10 µM: 14%

## Cc1c2oc3c(C)ccc(C(=O)N[C@@H]4C(=O)N[C@H](C(C)C)C(=O)N5CCC[C@H]5C(=O)N(C)CC(=O)N(C)[C@@H](C(C)C)C(=O)O[C@@H]4C)c3nc-2c(C(=O)N[C@@H]2C(=O)N[C@H](C(C)C)C(=O)N3CCC[C@H]3C(=O)N(C)CC(=O)N(C)[C@@H](C(C)C)C(=O)O[C@@H]2C)c(N)c1=O [Dactinomycin] (I: T[dV]P[Sar][NMeV] / II: T[dV]P[Sar][NMeV]; ester I:1-I:C, II:1-II:C; linker I:N-II:N via Actinocin(9to1))
[1]; [15]
  inhibition at 10 µM: 106%
[2]; [6]
  Quadrant (FIG. 5b): Q2
[3]; [16]
  inhibition at 10 µM: 106%

## CC(=O)S[C@@H]1CC2=CC(=O)CC[C@]2(C)[C@H]2CC[C@@]3(C)[C@@H](CC[C@@]34CCC(=O)O4)[C@H]12 [Spironolactone]
[2]
  Quadrant (FIG. 5b): Q4
[3]; [4]
  inhibition at 10 µM: 20%

## COc1cc([C@@H]2c3cc4c(cc3[C@H](O)[C@H]3COC(=O)[C@H]23)OCO4)cc(OC)c1OC [Podofilox, reference compound]
[1]; [17]
  IC50: 14 nM
[2]; Table 2, screen at 10 μM
  Quadrant (FIG. 5b): Q2
[2]; [18]
  Activity: fib/LPS
[3]; [19]
  IC50: 2 nM

## O=C1C=C2CC3(O)COc4cc(O)ccc4C3=C2C=C1O (stereo not drawn) [brazilein]
[1]; [17]
  IC50: 1470 nM
[2]; [18]
  Activity: fib/LPS
[3]; [19]
  IC50: 2170 nM

## Nc1nc2ccc(OC(F)(F)F)cc2s1 [Riluzole]
[1]; Rattus norvegicus, Microglia
  inhibition at 10 µM: 0%
[2]
  Quadrant (FIG. 5b): Q4
[3]; [4]
  inhibition at 10 µM: 7%

## CCN1C(=O)NC(c2ccccc2)C1=O (stereo not drawn) [Ethotoin]
[1]; [12]
  inhibition at 10 µM: -36%
[2]; [20]
  Quadrant (FIG. 5b): Q4
[3]; [14]
  inhibition at 10 µM: 12%

## neomycin sulfate
[1]
  fib specificity: 2.2
  fib_HS: −0.75
  IC50: 2300 nM
[2]
  Activity: fib/LPS
[3]
  LPS specificity: 0.5

## CC(C)CCCCCOC(=O)COc1ccc(Cl)cc1Cl
[1]; [17]
  IC50: 906 nM
[2]; [18]
  Activity: fib/LPS
[3]; [19]
  IC50: 1010 nM

## Nc1ccc(C(=O)Oc2ccccc2)c(O)c1 [Fenamisal, Phenyl Aminosalicylate]
[1]; primary microglia HTS, fibrin stimulation, compounds at 10 μM
  Fibrin % inhibition: −8%
[2]; [20]
  Quadrant (FIG. 5b): Q4
[3]; primary microglia HTS, LPS stimulation, compounds at 10 μM
  LPS % inhibition: 16%

## CS(=O)(=O)Nc1ccc([N+](=O)[O-])cc1Oc1ccccc1 [Nimesulide]
[1]; Rattus norvegicus, Microglia
  inhibition at 10 µM: -19%
[2]
  Quadrant (FIG. 5b): Q4
[3]; [4]
  inhibition at 10 µM: 13%

## OCc1cccnc1 [Nicotinyl Alcohol Tartrate]
[1]; [15]
  inhibition at 10 µM: -5%
[3]; [16]
  inhibition at 10 µM: 4%

## COc1cc2c(cc1OC)C(=O)C(CC1CCN(Cc3ccccc3)CC1)C2 (stereo not drawn) [Donepezil]
[1]; Rattus norvegicus, Microglia
  inhibition at 10 µM: 5%
[2]
  Quadrant (FIG. 5b): Q4
[3]; [11]
  inhibition at 10 µM: 17%

## O=C1O[C@H]([C@@H](O)CO)C(O)=C1O [Ascorbic Acid]
[1]; [12]
  inhibition at 10 µM: -8%
[2]; [13]
  Quadrant (FIG. 5b): Q4
[3]; [14]
  inhibition at 10 µM: 12%

## C[C@H]1O[C@@H](O[C@H]2[C@@H](O)C[C@H](O[C@H]3[C@@H](O)C[C@H](O[C@H]4CC[C@@]5(C)[C@H](CC[C@@H]6[C@@H]5C[C@@H](O)[C@]5(C)[C@@H](C7=CC(=O)OC7)CC[C@]65O)C4)O[C@@H]3C)O[C@@H]2C)C[C@H](O)[C@@H]1O [Digoxin]
[2]
  Quadrant (FIG. 5b): Q3 and Q4

## Cc1cc2nc3c(=O)[nH]c(=O)nc-3n(C[C@H](O)[C@H](O)[C@H](O)CO)c2cc1C [Riboflavin]
[2]
  Quadrant (FIG. 5b): Q4

## CCn1cc(C(=O)O)c(=O)c2cc(F)c(N3CCN(C)CC3)cc21 [Pefloxacin]
[3]; [4]
  inhibition at 10 µM: 21%

## O=C(O)c1cn(C2CC2)c2cc(N3CCNCC3)c(F)cc2c1=O [Ciprofloxacin]
[1]; Rattus norvegicus, Microglia
  inhibition at 10 µM: -30%
[3]; [11]
  inhibition at 10 µM: 17%

## Dimenhydrinate
[2]; [20]
  Quadrant (FIG. 5b): Q4

## C[C@]12CC[C@@H]3c4ccc(O)cc4C[C@@H](CCCCCCCCC[S+]([O-])CCCC(F)(F)C(F)(F)F)[C@H]3[C@@H]1CC[C@@H]2O (stereo partly drawn) [Fulvestrant]
[2]; [6]
  Quadrant (FIG. 5b): Q4
[3]; Rattus norvegicus, Microglia, 48 h, primary microglia HTS, LPS stimulation, activation = cell size >800 μm2; read-out: LPS % inhibition
  inhibition at 10 µM: 15%

## C#CC1(O)CC[C@H]2[C@@H]3CCC4=CC(=O)CC[C@@H]4[C@H]3CC[C@@]21CC (stereo partly drawn) [Norgestrel, Levonorgestrel]
[1]; primary microglia HTS, fibrin stimulation, increased cell size (>800 μm^2) as marker of activation
  Fibrin % inhibition: 13%
[3]; primary microglia HTS, LPS stimulation; increased cell size (>800 μm^2) as marker of activation
  LPS % inhibition: 14%

## CN1[C@@H]2CC[C@H]1C[C@@H](OC(=O)[C@H](CO)c1ccccc1)C2 [Hyoscyamine]
[3]; [4]
  inhibition at 10 µM: 13%

## COc1ccccc1OCCNCC(O)COc1cccc2[nH]c3ccccc3c12 (stereo not drawn) [Carvedilol, Carvedilol Phosphate]
[2]
  Quadrant (FIG. 5b): Q4
[3]; 10 µM
  LPS % inhibition: 15% and 19%

## CN1CCN(CCCN2c3ccccc3Sc3ccc(Cl)cc32)CC1 [Prochlorperazine dimaleate, reference compound]
[2]
  Activity: fib/LPS
  Quadrant (FIG. 5b): Q4

## CN1[C@@H]2CC[C@H]1C[C@@H](OC(=O)C(CO)c1ccccc1)C2 (stereo partly drawn) [Atropine]
[1]; Rattus norvegicus, Microglia
  inhibition at 10 µM: -21%
[3]; [11]
  inhibition at 10 µM: 4%

## CN1CCCCC1CCN1c2ccccc2Sc2ccc([S+](C)[O-])cc21 (stereo not drawn) [Mesoridazine]
[1]; Rattus norvegicus, Microglia
  inhibition at 10 µM: -5%

## CC[C@H]1OC(=O)[C@H](C)[C@@H](O[C@H]2C[C@@](C)(OC)[C@@H](O)[C@H](C)O2)[C@H](C)[C@@H](O[C@@H]2O[C@H](C)C[C@H](N(C)C)[C@H]2O)[C@](C)(O)C[C@@H](C)C(=O)[C@H](C)[C@@H](O)[C@]1(C)O [Erythromycin]
[2]; [20]
  Quadrant (FIG. 5b): Q4
[3]; [14]
  inhibition at 10 µM: 20%
[3]; primary microglia HTS, LPS stimulation, compounds at 10 μM; 10 µM
  LPS % inhibition: 13%
